The results in this text go back to ChEMBL document CHEMBL3526122, “Identification of UDP-glucuronosyltransferases responsible for the glucuronidation of darexaban, an oral factor Xa inhibitor, in human liver and intestine” (Drug Metab Dispos, 2012).

Series [1] addresses T1, UDP-glucuronosyltransferase 1A8 (Homo sapiens, UniProt Q9HAW9).
T1 sequence (Q9HAW9 whole entry): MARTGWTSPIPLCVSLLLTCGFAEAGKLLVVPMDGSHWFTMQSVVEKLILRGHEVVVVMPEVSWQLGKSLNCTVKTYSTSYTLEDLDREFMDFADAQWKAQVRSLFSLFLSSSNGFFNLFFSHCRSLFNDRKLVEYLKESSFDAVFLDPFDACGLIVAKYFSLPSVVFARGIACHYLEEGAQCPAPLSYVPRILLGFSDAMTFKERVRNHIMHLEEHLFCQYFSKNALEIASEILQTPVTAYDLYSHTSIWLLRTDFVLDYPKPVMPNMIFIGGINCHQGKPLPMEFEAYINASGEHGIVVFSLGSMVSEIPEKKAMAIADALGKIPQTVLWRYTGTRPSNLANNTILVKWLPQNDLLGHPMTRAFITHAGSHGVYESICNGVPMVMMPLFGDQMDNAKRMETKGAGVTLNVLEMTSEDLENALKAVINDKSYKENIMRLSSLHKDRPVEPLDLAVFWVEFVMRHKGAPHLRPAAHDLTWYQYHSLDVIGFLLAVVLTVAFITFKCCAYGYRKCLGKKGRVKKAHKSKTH
In words: Ratio of Ki to Km for human recombinant UGT1A8 expressed in baculovirus-infected insect cells. In kind it is ADME. The note with it: recombinant enzyme.

Series [2] is described as follows: Drug metabolism in human liver microsomes assessed as glucuronidation after 10 mins by Michaelis-Menten plot analysis in presence of UDPGA. The format is ADME. In general terms: Liver microsomes are vesicles of endoplasmic reticulum, rich in cytochrome P450 enzymes.
Series [3] in a line: Intrinsic clearance in human intestinal microsomes assessed per mg of protein at 1 to 250 uM after 5 mins in presence of UDPGA. The format is ADME, Intestine, Microsome.
The nature of series [4]: Drug metabolism in human intestinal microsomes assessed as glucuronidation after 5 mins by Michaelis-Menten plot analysis in presence of UDPGA. In kind it is ADME, Intestine, Microsome.
The target in series [5] is T2, UDP-glucuronosyltransferase 1A3 (Homo sapiens, UniProt P35503).
T2 sequence (P35503 whole entry): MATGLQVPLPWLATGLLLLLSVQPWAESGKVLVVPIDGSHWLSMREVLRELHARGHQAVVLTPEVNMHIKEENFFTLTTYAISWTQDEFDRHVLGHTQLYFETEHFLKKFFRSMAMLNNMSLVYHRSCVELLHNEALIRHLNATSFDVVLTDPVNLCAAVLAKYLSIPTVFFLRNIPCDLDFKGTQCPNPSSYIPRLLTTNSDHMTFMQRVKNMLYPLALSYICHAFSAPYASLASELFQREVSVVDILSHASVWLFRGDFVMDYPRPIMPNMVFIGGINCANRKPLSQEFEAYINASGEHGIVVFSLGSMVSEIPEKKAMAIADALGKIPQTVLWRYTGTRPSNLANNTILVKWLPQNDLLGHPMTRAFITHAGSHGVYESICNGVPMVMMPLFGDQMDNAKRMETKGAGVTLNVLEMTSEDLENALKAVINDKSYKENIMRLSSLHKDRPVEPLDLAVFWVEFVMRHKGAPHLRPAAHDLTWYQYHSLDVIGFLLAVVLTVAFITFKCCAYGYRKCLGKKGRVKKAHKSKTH
Put plainly: Activity of human recombinant UGT1A3 expressed in baculovirus-infected insect cells assessed as enzyme-mediated glucuronidation per mg of protein after 10 mins in presence of UDPGA. In kind it is ADME.

The target in series [6] is T3, UDP-glucuronosyltransferase 1A4 (Homo sapiens, UniProt P22310).
T3 sequence (P22310 whole entry): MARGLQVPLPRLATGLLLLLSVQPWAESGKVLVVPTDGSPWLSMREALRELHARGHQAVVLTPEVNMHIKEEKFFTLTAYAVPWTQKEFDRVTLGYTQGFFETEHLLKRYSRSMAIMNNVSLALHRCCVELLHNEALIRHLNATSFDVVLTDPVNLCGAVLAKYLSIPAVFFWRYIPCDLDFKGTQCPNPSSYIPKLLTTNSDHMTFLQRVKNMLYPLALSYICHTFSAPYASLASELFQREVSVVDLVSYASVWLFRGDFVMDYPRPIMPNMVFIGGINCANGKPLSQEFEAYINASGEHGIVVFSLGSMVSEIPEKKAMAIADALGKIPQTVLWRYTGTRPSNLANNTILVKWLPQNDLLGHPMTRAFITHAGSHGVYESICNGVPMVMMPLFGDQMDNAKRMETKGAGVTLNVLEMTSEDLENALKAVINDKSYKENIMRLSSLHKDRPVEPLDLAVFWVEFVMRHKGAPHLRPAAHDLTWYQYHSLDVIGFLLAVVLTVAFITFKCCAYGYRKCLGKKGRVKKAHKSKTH
Put plainly: Activity of human recombinant UGT1A4 expressed in baculovirus-infected insect cells assessed as enzyme-mediated glucuronidation per mg of protein after 10 mins in presence of UDPGA. In kind it is ADME.

In series [7] the target is T4, UDP-glucuronosyltransferase 1A6 (Homo sapiens, UniProt P19224).
T4 sequence (P19224 whole entry): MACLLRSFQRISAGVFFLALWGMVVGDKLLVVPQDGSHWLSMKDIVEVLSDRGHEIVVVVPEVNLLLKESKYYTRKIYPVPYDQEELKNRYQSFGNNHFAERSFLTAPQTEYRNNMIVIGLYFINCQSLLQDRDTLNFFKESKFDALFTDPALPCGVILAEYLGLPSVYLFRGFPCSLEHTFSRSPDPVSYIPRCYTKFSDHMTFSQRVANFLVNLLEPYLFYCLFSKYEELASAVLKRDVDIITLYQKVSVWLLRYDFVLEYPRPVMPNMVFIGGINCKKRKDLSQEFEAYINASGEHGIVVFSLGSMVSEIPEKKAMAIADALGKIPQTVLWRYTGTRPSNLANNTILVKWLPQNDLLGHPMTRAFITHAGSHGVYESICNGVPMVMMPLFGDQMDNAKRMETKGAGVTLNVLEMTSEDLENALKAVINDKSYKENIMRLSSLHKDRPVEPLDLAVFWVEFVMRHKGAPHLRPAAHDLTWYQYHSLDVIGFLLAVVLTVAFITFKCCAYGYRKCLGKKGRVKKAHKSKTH
In words: Activity of human recombinant UGT1A6 expressed in baculovirus-infected insect cells assessed as enzyme-mediated glucuronidation per mg of protein after 10 mins in presence of UDPGA. The format is ADME.

The test system of series [8] is Liver microsome. In words: Drug metabolism in human liver microsomes assessed as glucuronidation per mg of protein after 10 mins by Michaelis-Menten plot analysis in presence of UDPGA and 2% fatty acid free BSA. In kind it is ADME.
Series [9] has as its system Liver microsome. Put plainly: Unbound intrinsic clearance in human liver microsomes assessed per mg of protein after 10 mins in presence of UDPGA and absence of fatty acid free BSA. In kind it is ADME.
The nature of series [10]: Ratio of Km for drug metabolism in human liver microsomes to Km for human recombinant UGT-mediated drug metabolism. The note with it: recombinant enzyme. The format is ADME.
The nature of series [11]: Fraction unbound incubation mixture containing human recombinant UGT1A9 at 1 to 250 uM after 10 mins by ultrafiltration method in presence of 2% fatty acid free BSA.
Series [12] can be described thus: Drug metabolism in human liver microsomes assessed as glucuronidation after 10 mins by Michaelis-Menten plot analysis in presence of UDPGA and 2% fatty acid free BSA. In kind it is ADME. As to conditions: read-out: Km(unbound).

In general, Km refers to the substrate concentration at which the rate is half of its maximum. In general, Vmax refers to the top rate of the reaction or transport when substrate is in excess. In the case of `COc1ccc(C(=O)Nc2cccc(O)c2NC(=O)c2ccc(N3CCCN(C)CC3)cc2)cc1.O=C(O)CCC(=O)O`, the Ratio is reported as 30 in series [1] and 4.2 in series [10]. Moreover, the figures for the Km at 10 min in series [2] and in series [12] were greater than 250 µM and 17.6 µM, respectively. Moreover, the clearance in series [3] was 166 µL/min/mg. Further, the Km at 5 min in [4] stood at 27.3 µM. The Drug metabolism in series [5], in series [6] and in [7] was less than 0.01 nmol/min/mg throughout. Moreover, the Vmax in the series on Liver microsome [8] amounted to 3.14 nmol/min/mg. The CL free with Liver microsome [9] was found to be 17.4 µL/min/mg. Besides, the Fu in series [11] worked out at 0.237.
